Measurements from US6506901B2, “Substituted 2-(S)-hydroxy-3-(piperidin-4-yl-methylamino)-propyl ethers and substituted 2-aryl-2-(R)-hydroxy-1-(piperidin-4-yl-methyl)-ethylamine β-3 adrenergic receptor agonists” (Wyeth, priority 2000, dated 2003).
Several values for one entry are separate records, joined by “and”; a condition that tells them apart may be missing. Identical values can stand only once.

Target: T1, human β3 receptors (Homo sapiens, UniProt P13945)
T1 construct: Full length β3 AR clones (402 amino acids) containing the last 6 amino acids of hβ3—AR; expressed in transfected cells; host or cells: CHO cells
T1 sequence (P13945 whole entry): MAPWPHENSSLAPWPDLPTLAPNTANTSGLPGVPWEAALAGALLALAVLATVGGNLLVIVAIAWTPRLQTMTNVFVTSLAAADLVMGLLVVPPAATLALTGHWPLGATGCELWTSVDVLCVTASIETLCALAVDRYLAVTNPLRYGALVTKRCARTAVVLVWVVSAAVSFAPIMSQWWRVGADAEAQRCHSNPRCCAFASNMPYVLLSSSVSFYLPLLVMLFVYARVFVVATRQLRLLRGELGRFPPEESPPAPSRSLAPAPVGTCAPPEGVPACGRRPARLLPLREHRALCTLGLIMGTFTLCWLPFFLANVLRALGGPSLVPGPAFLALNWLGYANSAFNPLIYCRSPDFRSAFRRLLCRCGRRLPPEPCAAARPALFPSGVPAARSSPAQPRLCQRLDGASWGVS
Test: cAMP response (SPA) in CHO cells expressing cloned human β3 adrenergic receptor
Assay type: cell-based
Conditions: for EC50: CHO cells expressing human β3 receptor, cAMP, 30 min incubation, 10^−9 M to 10^−5 M; for IA(β3): maximal response compared to the maximal response of isoproterenol at 10^−5 M
Protocol: Binding to the receptors was measured in Chinese Hamster ovary (CHO) cells that were transfected with adrenergic receptors.
Cloning of Human β3-AR Genomic DNA: cDNA was constructed by ligating four polymerase chain reaction (PCR) products using the following primers: an ATG-NarI fragment, sense primer 5′-[…]3′ and anti-sense primer 5′ […]3′; a NarI-AccI fragment, 5′ […]3′ as sense and 5′ […]3′ as anti-sense primer; an AccIi-StyI fragment, sense primer 5′ […]3′ and anti-sense primer 5′ […]3′ and a StyI-TAG fragment, with sense primer 5′ […]3′ and anti-sense primer 5′ […]3′. The corresponding primer sequences are described in Mantzoros, C. […] The four fragments are ligated into a pUC 18 plasmid (Gibco-BRL) and sequenced.
CHO cells were grown in 24-well tissue culture plates in Dulbecco's Modified Eagle Media with 10% fetal bovine serum, MEM non-essential amino acids, Penicillin-Streptompycin and Geneticin. […] Isoproterenol (10^−5 M) was used as an internal standard for comparison of activity. Cells were incubated at 37° C. on a rocker for 30 min with the β3 cells and 15 min for β1 and β2 cells. Incubation was stopped with the addition of 0.2N HCl and neutralized with 2.5N NaOH. The plates, containing the cells and neutralized media, were stored at −20 degrees celsius until ready to test for cAMP using the SPA test kit (Amersham).
Data Analysis and Results: Data collected from the SPA test procedure were analyzed as per cent of the maximal isoproterenol response at 10^−5 M. Activity curves were plotted using the SAS statistical and graphics software.

SMILES | EC50 | IA(β3)
O=C1c2ccccc2-c2c(OC[C@@H](O)CNCC3CCN(CCC(F)(F)F)CC3)cccc21 [Example 13, 4-(2-Hydroxy-3-{[1-(3,3,3-trifluoro-propyl)-piperidin-4-ylmethyl]-amino}-propoxy)-fluoren-9-one] | 596 nM | 0.62
Cc1cc2c(OC[C@@H](O)CNCC3CCN(CCC(F)(F)F)CC3)cccc2[nH]1 [Example 23, (2S)-1-(2-Methyl-1H-indol-4-yloxy)-3-{[1-(3,3,3-trifluoro-propyl)-piperidin-4-ylmethyl]-amino}-propan-2-ol] | 1090 nM | 0.66
CC(C)S(=O)(=O)N1CCC(CNC[C@H](O)COc2cccc3[nH]c4ccccc4c23)CC1 [Example 32, (2S)-1-(9H-Carbazol-4-yloxy)-3-{[1-(ropane-2-sulfonyl)-piperidin-4-ylmethyl]-amino}-propan-2-ol] | 123 nM | 0.8
O=c1[nH]c2ccc(OCC(O)CNCC3CCN(S(=O)(=O)c4cccc(Br)c4)CC3)cc2[nH]1 (stereo in doubt) [Example 178] | 210 nM | 0.84
COc1ccc(S(=O)(=O)N2CCC(CNC[C@H](O)COc3cccc4c3CC(=O)N4)CC2)cc1OC [Example 44, 4-((2S)-3-{[1-(3,4-Dimethoxy-benzenesulfonyl)-piperidin-4-ylmethyl]-amino}-2-hydroxy-propoxy)-1,3-dihydro-indol-2-one] | 421 nM | 0.46
O=C(NC1CCCCC1)N1CCC(CNC[C@H](O)COc2cccc3[nH]c4ccccc4c23)CC1 [Example 56, 4-{[(2S)-3-(9H-Carbazol-4-yloxy)-2-hydroxy-propylamino]-methyl}-piperidine-1-carboxylic Acid Cyclohexylamide] | 110 nM | 0.53
COc1ccc(S(=O)(=O)N2CCC(CNC[C@H](O)COc3cccc4[nH]c5ccccc5c34)CC2)cc1 [Example 33, (2S)-1-(9H-Carbazol-4-yloxy)-3-{[1-(4-methoxy-benzenesulfonyl)-piperidin-4-ylmethyl]-amino}-propan-2-ol] | 141 nM | 0.68
Oc1ccc2[nH]c3ccccc3c2c1OC[C@@H](O)CNCC1CCN(CCC(F)(F)F)CC1 [Example 15, 4-((2S)-2-Hydroxy-3-{[1-(3,3,3-trifluoro-propyl)-piperidin-4-ylmethyl]-amino}-propoxy)-9H-carbazol-3-ol] | 12500 nM | 0.52
CC(C)(C)c1ccc(S(=O)(=O)N2CCC(CNC[C@H](O)COc3ccc(O)cc3)CC2)cc1 [Example 160, 4-[((2S)-3-{[(1-{[4-(tert-butyl)phenyl]sulfonyl}piperidin-4-yl)methyl]amino}-2-hydroxypropyl)oxy]phenol] | 346 nM | 0.85
O[C@@H](CNCC1CCN(CCCC(F)(F)F)CC1)COc1cccc2[nH]c3ccccc3c12 [Example 24, (2S)-1-(9H-Carbazol-4-yloxy)-3-{[1-(4,4,4-trifluoro-butyl)-piperidin-4-ylmethyl]-amino}-propan-2-ol] | 943 nM | 0.98
CCc1cc(Br)ccc1S(=O)(=O)N1CCC(CNC[C@H](O)c2ccc(O)c(NS(C)(=O)=O)c2)CC1 [Example 168, N-(5-((1R)-2-[({1-[(4-bromo-2-ethylphenyl)sulfonyl]piperidin-4-yl}-methyl)amino]-1-hydroxyethyl}-2-hydroxyphenyl)-methanesulfonamide] | 940 nM | 0.72
CS(=O)(=O)Nc1cc([C@@H](O)CNCC2CCN(S(=O)(=O)c3c(Cl)sc(Cl)c3Br)CC2)ccc1O [Example 173, N-(5-{(1R)-2-[({1-[(4-bromo-2,5-dichlorothien-3-yl)sulfonyl]-piperidin-4-yl}methyl)amino]-1-hydroxyethyl}-2-hydroxyphenyl)-methanesulfonamide] | 388 nM and 380 nM | 1.34 and 1.15

Results, then the molecule that gave them:

EC50 | IA(β3) | SMILES
5 nM | 1.1 | CS(=O)(=O)Nc1cc([C@@H](O)CNCC2CCN(S(=O)(=O)c3ccc(NC(=O)NCCc4cc(F)ccc4F)cc3)CC2)ccc1O [Example 81, N-{5-[(1R)-2-({[1-({4-[({[2-(2,5-difluorophenyl)ethyl]amino]-carbonyl)amino}-phenyl}sulfonyl)piperidin-4-yl]methyl}amino)-1-hydroxyethyl]-2-hydroxyphenyl}-methanesulfonamide]
11 nM | 0.96 | CS(=O)(=O)Nc1cc([C@@H](O)CNCC2CCN(S(=O)(=O)c3ccc(-n4cc(CC(=O)O)c5ccccc54)cc3)CC2)ccc1O [Example 97, {1-[4-(4-{[(2R)-2-Hydroxy-2-(4-hydroxy-3-methanesulfonylamino-phenyl)-ethylamino]-methyl}-piperidine-1-sulfonyl)-phenyl]-1H-indol-3-yl}-acetic Acid]
110 nM | 0.72 | O=C(NCc1c(F)cccc1F)c1ccc(S(=O)(=O)N2CCC(CNC[C@H](O)COc3ccc(O)cc3)CC2)cc1 [Example 91, N-(2,6-Difluoro-benzyl)-4-(4-{[(2S)-2-hydroxy-3-(4-hydroxy-phenoxy)-propylamino]-methyl}-piperidine-1-sulfonyl)-benzamide]
95 nM | 0.65 | COc1ccc(S(=O)(=O)N2CCC(CNC[C@H](O)COc3cccc4c3CC(=O)N4)CC2)cc1 [Example 41, 4-((2S)-3-{[1-(4-Methoxy-benzenesulfonyl)-piperidin-4-ylmethyl]-amino}-2-hydroxy-propoxy)-1,3-dihydro-indol-2-one]
10 nM | 1 | CC(C)C[C@H](NC(=O)c1ccc(N2CCC(CNC[C@H](O)c3ccc(O)c(NS(C)(=O)=O)c3)CC2)cc1)C(=O)O [Example 114, (2S)-2-{[4-(4-{[((2R)-2-Hydroxy-2-{4-hydroxy-3-[(methylsulfonyl)amino]phenyl}-ethyl)amino]methyl}piperidin-1-yl)benzoyl]amino}-4-methylpentanoic Acid]
96 nM | 0.6 | CCCCCCCCNC(=O)Nc1ccc(S(=O)(=O)N2CCC(CNCC(O)COc3cccc4[nH]c(C(N)=O)cc34)CC2)cc1 (centres unmarked) [Example 71, 4-[2-Hydroxy-3-({1-[4-(3-octyl-ureide)-benzenesulfonyl]-piperidin-4-ylmethyl}-amino)-propoxy]-1H-indole-2-carboxylic Acid Amide]
31 nM | 1.2 | CS(=O)(=O)Nc1cc([C@@H](O)CNCC2CCN(c3ccc(C(=O)NC(Cc4ccccc4)C(=O)O)cc3)CC2)ccc1O (stereo in doubt) [Example 109, (2S)-2-{[4-(4-{[((2R)-2-Hydroxy-2-{4-hydroxy-3-[(methylsulfonyl)amino]phenyl}-ethyl)amino]methyl}piperidin-1-yl)benzoyl]amino}-3-phenylpropanoic Acid]
35 nM | – | CS(=O)(=O)Nc1cc([C@@H](O)CNCC2CCN(S(=O)(=O)c3ccc(NC(=O)NCc4ccc(OCC(=O)O)cc4F)cc3)CC2)ccc1O [Example 89, [3-Fluoro-4-[[[[[4-[[4-[[[(R)-2-hydroxy-2-[4-hydroxy-3-[(methylsulfonyl)amino]phenyl]-ethy]amino]-methyl]-1-piperidinyl]sulfonyl]phenyl]amino]carbonyl]-amino]-methyl]phenoxy]acetic Acid]
6 nM | 1 | CCCCCCCCNC(=O)Nc1ccc(S(=O)(=O)N2CCC(CNC[C@H](O)c3ccc(O)c(NS(C)(=O)=O)c3)CC2)cc1 [Example 73, (R)-N-{2-Hydroxy-5-[1-hydroxy-2-({1-[4-(3-octyl-ureido)-benzenesulfonyl]-piperidin-4-ylmethyl}-amino)-ethyl]-phenyl}-methanesulfonamide]
29 nM | 1.2 | CN(Cc1c(F)cccc1F)C(=O)Nc1ccc(S(=O)(=O)N2CCC(CNC[C@H](O)c3ccc(O)c(NS(C)(=O)=O)c3)CC2)cc1 [Example 85, N-(5-{2-[(1-{4-[3-(2,6-Difluoro-benzyl)-3-methyl-ureido]-benzenesulfonyl}-piperidin-4-ylmethyl)-amino]-1-hydroxy-ethyl}-2-hydroxy-phenyl)-methanesulfonamide]
9 nM | 1 | CS(=O)(=O)Nc1cc([C@@H](O)CNCC2CCN(S(=O)(=O)c3ccc(-n4ccc5c(C(=O)O)cccc54)cc3)CC2)ccc1O [Example 99, 1-[4-(4-{[(2R)-2-Hydroxy-2-(4-hydroxy-3-methanesulfonylamino-phenyl)-ethylamino]-methyl}-piperidine-1-sulfonyl)-phenyl]-1H-indole-4-carboxylic Acid]
25 nM | 1 | COC(=O)c1cccc2c1ccn2-c1ccc(S(=O)(=O)N2CCC(CNC[C@H](O)c3ccc(O)c(NS(C)(=O)=O)c3)CC2)cc1 [Example 98, 1-[4-(4-{[(2R)-2-Hydroxy-2-(4-hydroxy-3-methanesulfonylamino-phenyl)-ethyl-amino]-methyl}-piperidine-1-sulfonyl)-phenyl]-1H-indole-4-carboxylic Acid Methyl Ester]
